Measurements published in US20080146811A1, “Compounds and Methods For Treatment of Thrombosis” (priority 2004, published 2008).

What was measured:
Format in all cases: biochemical
factor Xa = factor Xa (Homo sapiens, UniProt P00742); test: In vitro inhibition of factor Xa
thrombin = thrombin (Homo sapiens, UniProt P00734); test: In vitro inhibition of thrombin
factor XIa = factor XIa (Homo sapiens, UniProt P03951); test: In vitro inhibition of factor XIa
Chain of factor XIa (P03951 388-625 limits assumed): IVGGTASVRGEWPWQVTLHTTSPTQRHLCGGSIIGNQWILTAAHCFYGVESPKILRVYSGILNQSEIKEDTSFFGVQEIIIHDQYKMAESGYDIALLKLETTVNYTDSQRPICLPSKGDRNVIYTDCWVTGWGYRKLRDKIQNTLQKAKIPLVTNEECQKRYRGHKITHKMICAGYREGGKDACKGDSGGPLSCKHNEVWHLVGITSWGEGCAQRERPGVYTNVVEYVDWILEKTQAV

Chain of factor Xa (P00742 235-488 limits assumed): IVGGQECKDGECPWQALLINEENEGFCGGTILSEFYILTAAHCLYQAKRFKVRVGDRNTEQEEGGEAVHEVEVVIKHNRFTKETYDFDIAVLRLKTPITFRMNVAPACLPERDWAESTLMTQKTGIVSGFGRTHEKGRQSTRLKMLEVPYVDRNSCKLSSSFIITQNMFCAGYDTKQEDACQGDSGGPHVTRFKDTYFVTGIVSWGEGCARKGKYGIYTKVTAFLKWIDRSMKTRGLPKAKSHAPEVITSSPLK
Chain of factor Xa (P00742 41-179 partner limits assumed): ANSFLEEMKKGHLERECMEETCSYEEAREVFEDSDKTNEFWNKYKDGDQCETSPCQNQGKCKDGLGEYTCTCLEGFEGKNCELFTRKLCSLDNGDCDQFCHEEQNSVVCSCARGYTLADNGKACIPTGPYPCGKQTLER

Row | SMILES | IC50 (factor Xa) [µM] | IC50 (thrombin) [µM] | IC50 (factor XIa) [µM]
1 | Cc1c(O)cccc1NC(=O)Cn1cc(C(=N)N)c2ccccc21 [Compound 1] | 167 | > 200 | 47.9
2 | C[C@@H](CNC(=O)Cn1cc(C(=N)N)c2ccccc21)c1ccccc1 [Compound 5] | 283 | > 200 | 37.1
3 | N=C(N)c1cn(CC(=O)Nc2cccnc2)c2c(Br)cccc12 [Compound 8] | 170 | > 200 | 0.62
4 | N=C(N)c1cn(CC(=O)Nc2cc(F)cc(F)c2)c2c(Br)cccc12 [Compound 12] |  |  | 2.51
5 | N=C(N)c1cn(CC(=O)Nc2ccc3ncccc3c2)c2c(Br)cccc12 [Compound 34] |  |  | 1.39
6 | N=C(N)c1cn(CC(=O)Nc2cccnc2)c2cc(CCC(N)=O)ccc12 [Compound 40] |  |  | 127
7 | N=C(N)c1cn(CC(=O)Nc2cccnc2)c2c(-c3cccc(O)c3)cccc12 [Compound 46] |  |  | 8.09
8 | N=C(N)c1cn(CC(=O)Nc2cccnc2)c2c(/C=C/C(N)=O)cccc12 [Compound 47] |  | > 200 | 1.77
9 | N=C(N)c1cn(CC(=O)Nc2cccnc2)c2c(/C=C/C(=O)Nc3cccnc3)cccc12 [Compound 54] |  |  | 1.99
10 | COC(=O)c1ccc(NC(=O)Cn2cc(C(=N)N)c3cccc(/C=C/C(=O)NC4Cc5ccccc5C4)c32)cc1 [Compound 58] |  |  | 3.23
11 | COC(=O)c1ccc(NC(=O)Cn2cc(C(=N)N)c3cccc(/C=C/C(=O)N4CCc5cc(O)c(O)cc5C4)c32)cc1 [Compound 64] |  |  | 1.96
12 | N=C(N)c1cn(CC(=O)Nc2ccc(C(=O)O)cc2)c2c(C=CC(=O)NC(Cc3ccc(O)cc3)C(=O)O)cccc12 (stereo not shown) [Compound 70] | > 2 | > 200 | 0.042
13 | N=C(N)c1cn(CC(=O)Nc2ccc(C(=O)O)cc2)c2c(/C=C/C(=O)N[C@H](C(=O)O)c3ccccc3)cccc12 [Compound 77] | 67.8 | > 200 | 0.093
14 | N=C(N)c1cn(CC(=O)Nc2cccnc2)c2c(C(N)=O)cccc12 [Compound 84] |  |  | 1.47
15 | CCOC(=O)C1CCCN(C(=O)Cn2cc(C(=N)N)c3cccc(C(=O)N4CCCC(C(=O)OCC)C4)c32)C1 (stereo not shown) [Compound 91] |  |  | 3.81
16 | COC(=O)c1ccc(NC(=O)Cn2cc(C(=N)N)c3cccc(C(=O)NCc4ccc(O)c(O)c4)c32)cc1 [Compound 95] | 82 | 4.2 | 0.87
17 | COC(=O)[C@H](CC(C)C)NC(=O)c1cccc2c(C(=N)N)cn(CC(=O)Nc3cccnc3)c12 [Compound 98] |  | 3.78 | 0.1
18 | N=C(N)c1cn(C(=CC(=O)N2CCNCC2)c2ccccc2)c2ccccc12 [Compound 101] |  |  | 6.27
19 | N=C(N)c1cn(C(=CC(=O)N2CCCC(C(=O)O)C2)c2ccccc2)c2ccccc12 (stereo not shown) [Compound 111] |  |  | 13.7
20 | COC(=O)c1ccc(Br)cc1-n1cc(C(=N)N)c2ccccc21 [Compound 131] | 35.1 | 60.2 | 1.36
21 | COC(=O)c1ccc(-c2cccc(O)c2)cc1-n1cc(C(=N)N)c2ccccc21 [Compound 135] | 15.2 | 43.7 | 1.62
22 | COC(=O)c1ccc(-c2cccnc2)cc1-n1cc(C(=N)N)c2ccccc21 [Compound 139] | 9.65 | 73.1 | 3.8
23 | COC(=O)c1ccc(NC(=O)c2cccnc2)cc1-n1cc(C(=N)N)c2ccccc21 [Compound 142] |  |  | 11.3
24 | N=C(N)c1cn(-c2cc(Br)ccc2C(=O)N2CCNCC2)c2ccccc12 [Compound 144] |  |  | 81.7
25 | CON(C)C(=O)c1ccc(Br)cc1-n1cc(C(=N)N)c2ccccc21 [Compound 148] |  |  | 134
26 | N=C(N)c1cn(-c2cc(Br)ccc2C(=O)NCc2ccccc2)c2ccccc12 [Compound 150] |  |  | 280
27 | N=C(N)c1cn(-c2ccccc2[N+](=O)[O-])c2ccccc12 [Compound 151] | 145 | 224 | 4.15
28 | COC(=O)c1cccc(Oc2ccc([N+](=O)[O-])c(-n3cc(C(=N)N)c4ccccc43)c2)c1 [Compound 154] | 54.7 | 20.2 | 3
29 | N=C(N)c1cn(-c2cc(Cl)ccc2[N+](=O)[O-])c2c(C(=O)Nc3cccnc3)cccc12 [Compound 158] | 80.8 | > 200 | 1.24
